Reference: patent US4343943A, “Cephalosporin analogs” (Kyowa Hakko Kogyo Co., Ltd., priority 1978, dated 1982)
In brackets after ≈: the same amount, converted by molar mass. Where two headings read alike, the source gives them in different places.

Columns and labels:
Format in all cases: cell-based
[1] = system: Pseudomonas aeruginosa 145; experiment: Antibacterial activity, Heart Infusion Agar Dilution Method (pH 7.2)
Description: (§1) Antibacterial activities of the compounds obtained in Examples 6 and 8 are measured according to the Heart Infusion Agar Dilution Method (pH 7.2). Cefazolin is used as a control.

[2] = system: Escherichia coli GN 2411-5; experiment: as above; conditions: GN2411
Description: as §1

[3] = system: Pseudomonas aeruginosa No. 1; experiment: as above
Description: as §1

Proteus vulgaris 6897 = experiment: as above
Description: as §1

[4] = system: Klebsiella pneumoniae 8045; experiment: as above
Description: as §1

[5] = system: Staphylococcus aureus Smith; experiment: as above
Description: as §1

Proteus morganii KY4298 = experiment: as above; conditions: Morganella morganii
Description: as §1

[6] = system: Staphylococcus aureus 209-P; experiment: as above
Description: as §1

Pseudomonas putida F264 = experiment: as above
Description: as §1

Proteus mirabilis 1287 = experiment: as above
Description: as §1

[7] = system: Klebsiella pneumoniae Y-60; experiment: as above; conditions: Y60
Description: as §1

Serratia marcescens T-26 = experiment: as above; conditions: T26
Description: as §1

Escherichia coli Juhl = experiment: as above
Description: as §1

Escherichia coli NIHJC-2 = experiment: as above
Description: as §1

Proteus rettgeri KY4289 = experiment: as above; conditions: Providencia rettgeri
Description: as §1

[8] = system: Staphylococcus epidermidis; experiment: as above
Description: as §1

Serratia marcescens T-55 = experiment: as above; conditions: T55
Description: as §1

Shigella sonnei KY4281 = experiment: Antibacterial activity, Heart Infusion Agar Dilution Method (pH 7.0)
Description: (§2) Antibacterial activities of the product obtained in this Example are measured according to the Heart Infusion Agar Dilution Method (pH 7.0).

[9] = system: Salmonella typhosa KY4278; experiment: as above; conditions: Salmonella enterica
Description: as §2

Erwinia aroides KY3241 = experiment: as above
Description: as §2

Vibrio percolans KY4174 = experiment: as above; conditions: Comamonas terrigena
Description: as §2

Bacillus subtilis KY4273 = experiment: as above
Description: as §2

Proteus vulgaris KY4277 = experiment: as above
Description: as §2

[10] = system: Klebsiella pneumonia KY4275; experiment: as above; conditions: Klebsiella pneumoniae
Description: as §2

[11] = system: Staphylococcus aureus KY4279; experiment: as above
Description: as §2

Escherichia coli KY4271 = experiment: as above
Description: as §2

[12] = Escherichia coli Juhl, agar dilution, read-out: MIC
[13] = NIHJC2, Escherichia coli NIHJC-2, agar dilution, pH 7.2, read-out: MIC

| MIC [1] [µg/mL] | MIC [2] [µg/mL] | MIC [3] [µg/mL] | MIC (Proteus vulgaris 6897) [µg/mL] | MIC [4] [µg/mL] | MIC [5] [µg/mL] | MIC (Proteus morganii KY4298) [µg/mL] | MIC [6] [µg/mL] | MIC (Pseudomonas putida F264) [µg/mL] | MIC (Proteus mirabilis 1287) [µg/mL] | MIC [7] [µg/mL] | MIC (Serratia marcescens T-26) [µg/mL] | MIC (Escherichia coli Juhl; [12]) [µg/mL] | MIC (Escherichia coli NIHJC-2; [13]) [µg/mL] | MIC (Proteus rettgeri KY4289) [µg/mL] | MIC [8] [µg/mL] | MIC (Serratia marcescens T-55) [µg/mL] | SMILES | further results |
| --- | --- | --- | --- | --- | --- | --- | --- | --- | --- | --- | --- | --- | --- | --- | --- | --- | --- | --- |
| ≥ 50 | ≥ 50 | ≥ 50 | ≥ 50 | 50 (≈ 138 µM) | ≥ 50 | ≥ 50 | ≥ 50 | ≥ 50 | ≥ 50 | ≥ 50 | ≥ 50 | ≥ 50 | ≥ 50 | ≥ 50 | ≥ 50 | ≥ 50 | CO/N=C(/C(=O)N[C@@H]1C(=O)N2C(C(=O)O)=CC=C[C@H]12)c1csc(N)n1 (relative stereo) [Example 6, (±)-cis-7-[2-(2-amino-4-thiazolyl)-2-anti-methoxyiminoacetamido]-1-azabicyclo[4,2,0]oct-2,4-diene-8-on-2-carboxylic acid] | – |
| ≥ 50 | 25 (≈ 68.8 µM) | ≥ 50 | 6.25 (≈ 17.2 µM) | 6.25 (≈ 17.2 µM) | ≥ 50 | 12.5 (≈ 34.4 µM) | ≥ 50 | 12.5 (≈ 34.4 µM) | 6.25 (≈ 17.2 µM) | ≥ 50 | ≥ 50 | 50 (≈ 138 µM) | 25 (≈ 68.8 µM) | 6.25 (≈ 17.2 µM) | ≥ 50 | 50 (≈ 138 µM) | CO/N=C(\C(=O)N[C@@H]1C(=O)N2C(C(=O)O)=CC=C[C@H]12)c1csc(N)n1 (relative stereo) [Example 8, (±)-cis-7-[2-(2-amino-4-thiazolyl)-2-syn-methoxyiminoacetamido]-1-azabicyclo[4,2,0]oct-2,4-diene-8-on-2-carboxylic acid] | – |
| – | – | – | – | – | – | – | – | – | – | – | – | – | – | – | – | – | O=C(Cc1cccs1)NC1C(=O)N2C(C(=O)O)=CC=CC12 (stereo not drawn) [Example 10, (±)-cis-7-[2-(thiophene-2-yl)acetylamino]-1-azabicyclo[4,2,0]oct-2,4-diene-8-on-2-carboxylic acid] | MIC (Shigella sonnei KY4281): > 55.6 µg/mL; MIC [9]: 13.9 µg/mL (≈ 45.7 µM); MIC (Erwinia aroides KY3241): 13.9 µg/mL (≈ 45.7 µM); MIC (Vibrio percolans KY4174): 55.6 µg/mL (≈ 183 µM); MIC (Bacillus subtilis KY4273): 55.6 µg/mL (≈ 183 µM); MIC (Proteus vulgaris KY4277): 27.8 µg/mL (≈ 91.3 µM); MIC [10]: 27.8 µg/mL (≈ 91.3 µM); MIC [11]: 27.8 µg/mL (≈ 91.3 µM); MIC (Escherichia coli KY4271): > 55.6 µg/mL |

| SMILES | MIC [1] [µg/mL] | MIC [2] [µg/mL] | MIC [3] [µg/mL] | MIC (Proteus vulgaris 6897) [µg/mL] | MIC [4] [µg/mL] | MIC [5] [µg/mL] | MIC (Proteus morganii KY4298) [µg/mL] | MIC [6] [µg/mL] | MIC (Pseudomonas putida F264) [µg/mL] | MIC (Proteus mirabilis 1287) [µg/mL] | MIC [7] [µg/mL] | MIC (Serratia marcescens T-26) [µg/mL] | MIC (Escherichia coli Juhl; [12]) [µg/mL] | MIC (Escherichia coli NIHJC-2; [13]) [µg/mL] | MIC (Proteus rettgeri KY4289) [µg/mL] | MIC [8] [µg/mL] | MIC (Serratia marcescens T-55) [µg/mL] | further results |
| --- | --- | --- | --- | --- | --- | --- | --- | --- | --- | --- | --- | --- | --- | --- | --- | --- | --- | --- |
| Cc1nnc(SCC2=C(C(=O)O)N3C(=O)[C@@H](NC(=O)Cn4cnnn4)[C@H]3SC2)s1 [Cefazolin, reference compound] | > 100 | – | – | 12.5 (≈ 27.5 µM) | 0.78 (≈ 1.72 µM) | 0.4 (≈ 0.88 µM) | > 100 | < 0.05 | > 100 | 12.5 (≈ 27.5 µM) | 3.12 (≈ 6.86 µM) | > 100 | – | – | 25 (≈ 55 µM) | 0.78 (≈ 1.72 µM) | 50 (≈ 110 µM) | MIC (Escherichia coli Juhl; Escherichia coli): 1.56 µg/mL (≈ 3.43 µM); MIC (Escherichia coli NIHJC-2; Escherichia coli, NIHJC2, pH 7.2): 1.56 µg/mL (≈ 3.43 µM) |
